In US8507509B2, “Saturated and insaturated bi- or tricyclic aryloxyacetamine derivatives and their use as fungicides” (Syngenta Crop Protection LLC, priority 2007, dated 2013):

What was measured:
[1] = test system: Erysiphe graminis f.sp. tritici; assay: Erysiphe graminis f.sp. tritici (wheat powdery mildew), wheat leaf segment assay, preventive; assay type: in vivo; settings: Blumeria graminis, foliar, 96 h; 200 ppm; wheat leaf segments; assessed four days after inoculation; read-out: control of fungal infection, Etysiphe graminis f.sp. tritici
Plasmopara viticola = Plasmopara viticola (downy mildew of grapevine), grapevine leaf disk assay, preventive; assay type: in vivo; settings: foliar, 168 h, 200 ppm, grapevine leaf disks, assessed seven days after inoculation, read-out: control of fungal infection, Plasmopara viticola
Septoria tritici = Septoria tritici (leaf blotch), liquid culture growth inhibition in nutrient broth; assay type: cell-based; settings: Zymoseptoria tritici; 200 ppm; PDB broth, 24 C; inhibition of growth determined photometrically after 72 hrs; read-out: control of fungal infection, Septoria tritici
Pythium ultimum = Pythium ultimum (Damping off), liquid culture growth inhibition in potato dextrose broth; assay type: cell-based; settings: Globisporangium ultimum; 20 ppm; potato dextrose broth, 24° C.; inhibition of growth determined photometrically after 48 hours; read-out: control of fungal infection, Pythium ultimum
Botrytis cinerea = Botrytis cinerea (grey mould), bean leaf disk assay, preventive; assay type: in vivo; settings: foliar, 96 h, 200 ppm, bean leaf disks, assessed four days after inoculation, read-out: control of fungal infection, Botrytis cinerea
Phytophthora infestans = assay: whole plant or invertebrate; assay type: in vivo; settings: in Solanum lycopersicum, foliar, 96 h, read-out: control of fungal infection, Phytophthora infestans
Septoria nodorum = Septoria nodorum (wheat glume blotch), wheat leaf segment assay, preventive; assay type: in vivo; settings: Parastagonospora nodorum, foliar, 96 h; 200 ppm; wheat leaf segments; assessed four days after inoculation; read-out: control of fungal infection, Septoria nodorum
[2] = test system: Puccinia recondita f.sp. tritici; assay: Puccinia recondita f.sp. tritici (wheat brown rust), wheat leaf segment assay, preventive; assay type: in vivo; settings: foliar, 216 h, 200 ppm, wheat leaf segments, assessed nine days after inoculation, read-out: control of fungal infection, Puccinia recondite f.sp. tritici
Fusarium culmorum = Fusarium culmorum (root rot), liquid culture growth inhibition in nutrient broth; assay type: cell-based; settings: PDB broth, 24 C, inhibition of growth determined photometrically after 48 hrs, read-out: control of fungal infection, Fusarium culmorum
Method in brief: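 Fusarium culmorum conidia from cryogenic storage were mixed into potato dextrose broth and added to compound pre-dispensed from DMSO (diluted in 0.025% Tween20). Incubated at 24 C in the dark; growth inhibition read photometrically after 48 hrs.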

Pyricularia oryzae = assay: whole plant or invertebrate; assay type: in vivo; settings: foliar, 96 h, read-out: control of fungal infection, Pyricularia oryzae

**Q.** With `CON=CC(C)(C)NC(=O)C(Oc1cc(Cl)c2ncc(Cl)cc2c1)SC` (stereo not shown) [Compound No. 90, 2-(3,8-Dichloro-quinolin-6-yloxy)-N-(2-methoxyimino-1,1-dimethyl-ethyl)-2-methylsulfanyl-acetamide] as the compound, how does the pest or weed control at 200 ppm [1] read?
**A.** ≥ 60%

**Q.** What about the pest or weed control at 200 ppm (Plasmopara viticola) of the same compound?
**A.** ≥ 60%

**Q.** And the melting point?
**A.** 158 to 161 °C

**Q.** And the inhibition of growth at 200 ppm (Septoria tritici)?
**A.** ≥ 60%

**Q.** And the inhibition of growth at 20 ppm (Pythium ultimum)?
**A.** ≥ 60%

**Q.** And the pest or weed control at 200 ppm (Botrytis cinerea)?
**A.** ≥ 60%

**Q.** Which pest or weed control at 200 ppm [1] does the source give for `C#Cc1cnc2c(C)cc(OC(OC)C(=O)NC(C)(C)C=NOC)cc2c1` (stereo not shown) [Compound No. 77, 2-(3-Ethynyl-8-methyl-quinolin-6-yloxy)-2-methoxy-N-(2-methoxyimino-1,1-dimethyl-ethyl)-acetamide] here?
**A.** ≥ 60%

**Q.** And the pest or weed control at 200 ppm (Plasmopara viticola)?
**A.** ≥ 60%

**Q.** And the melting point?
**A.** 138 to 140 °C

**Q.** What about the inhibition of growth at 200 ppm (Septoria tritici) of the same compound?
**A.** ≥ 60%

**Q.** And the inhibition of growth at 20 ppm (Pythium ultimum)?
**A.** ≥ 60%

**Q.** What about the pest or weed control at 200 ppm (Phytophthora infestans) of the same compound?
**A.** ≥ 60%

**Q.** And the pest or weed control at 200 ppm (Septoria nodorum)?
**A.** ≥ 60%

**Q.** And the pest or weed control at 200 ppm [2]?
**A.** ≥ 60%

**Q.** And the inhibition of growth at 200 ppm (Fusarium culmorum)?
**A.** ≥ 60%

**Q.** For `CCON=CC(C)(C)NC(=O)C(Oc1cc(C)c2ncc(Br)cc2c1)SC` (stereo not shown) [Compound No. 27, 2-(3-bromo-8-methyl-quinolin-6-yloxy)-N-(2-ethoxyimino-1,1-dimethyl-ethyl)-2-methylsulfanyl-acetamide], which pest or weed control at 200 ppm (Pyricularia oryzae) is on record?
**A.** ≥ 60%

**Q.** And the inhibition of growth at 200 ppm (Septoria tritici)?
**A.** ≥ 60%

**Q.** What about the pest or weed control at 200 ppm (Phytophthora infestans) of the same compound?
**A.** ≥ 60%

**Q.** For `C#Cc1cnc2c(Cl)cc(OC(SC)C(=O)NC(C)(C)C=NOCC)cc2c1` (stereo not shown) [Compound No. 116, 2-(8-Chloro-3-ethynyl-quinolin-6-yloxy)-N-(2-ethoxyimino-1,1-dimethyl-ethyl)-2-methylsulfanyl-acetamide], which pest or weed control at 200 ppm (Pyricularia oryzae) is on record?
**A.** ≥ 60%

**Q.** And the pest or weed control at 200 ppm (Plasmopara viticola)?
**A.** ≥ 60%

**Q.** What about the inhibition of growth at 200 ppm (Septoria tritici) of the same compound?
**A.** ≥ 60%

**Q.** And the inhibition of growth at 20 ppm (Pythium ultimum)?
**A.** ≥ 60%

**Q.** And the pest or weed control at 200 ppm (Phytophthora infestans)?
**A.** ≥ 60%

**Q.** What about the pest or weed control at 200 ppm (Septoria nodorum) of the same compound?
**A.** ≥ 60%

**Q.** For `CON=CC(C)(C)NC(=O)C(Oc1ccc2ncc(Br)cc2c1)SC` (stereo not shown) [Compound No. 15, 2-(3-Bromo-quinolin-6-yloxy)-N-(2-methoxyimino-1,1-dimethyl-ethyl)-2-methylsulfanyl-acetamide], which pest or weed control at 200 ppm (Pyricularia oryzae) is on record?
**A.** ≥ 60%

**Q.** And the pest or weed control at 200 ppm [1]?
**A.** ≥ 60%

**Q.** What about the pest or weed control at 200 ppm (Plasmopara viticola) of the same compound?
**A.** ≥ 60%

**Q.** And the inhibition of growth at 200 ppm (Septoria tritici)?
**A.** ≥ 60%

**Q.** And the inhibition of growth at 20 ppm (Pythium ultimum)?
**A.** ≥ 60%

**Q.** What about the pest or weed control at 200 ppm (Phytophthora infestans) of the same compound?
**A.** ≥ 60%

**Q.** With `CON=CC(C)(C)NC(=O)C(OC)Oc1ccc2ncc(I)cc2c1` (stereo not shown) [Compound No. 72, 2-(3-Iodo-quinolin-6-yloxy)-2-methoxy-N-(2-methoxyimino-1,1-dimethyl-ethyl)-acetamide] as the compound, how does the pest or weed control at 200 ppm [1] read?
**A.** ≥ 60%

**Q.** What about the pest or weed control at 200 ppm (Plasmopara viticola) of the same compound?
**A.** ≥ 60%

**Q.** And the melting point?
**A.** 101 to 103 °C

**Q.** What about the inhibition of growth at 200 ppm (Septoria tritici) of the same compound?
**A.** ≥ 60%

**Q.** And the inhibition of growth at 20 ppm (Pythium ultimum)?
**A.** ≥ 60%

**Q.** And the pest or weed control at 200 ppm (Phytophthora infestans)?
**A.** ≥ 60%

**Q.** What about the pest or weed control at 200 ppm (Septoria nodorum) of the same compound?
**A.** ≥ 60%

**Q.** What about the pest or weed control at 200 ppm (Botrytis cinerea) of the same compound?
**A.** ≥ 60%

**Q.** What about the pest or weed control at 200 ppm [2] of the same compound?
**A.** ≥ 60%

**Q.** And the inhibition of growth at 200 ppm (Fusarium culmorum)?
**A.** ≥ 60%

**Q.** Which pest or weed control at 200 ppm [1] does the source give for `CON=CC(C)(C#N)NC(=O)C(Oc1ccc2ncc(C#C[Si](C)(C)C)cc2c1)SC` (stereo not shown) [Compound No. 58, N-(1-Cyano-2-methoxyimino-1-methyl-ethyl)-2-methylsulfanyl-2-(3-trimethylsilanylethynyl-quinolin-6-yloxy)-acetamide] here?
**A.** ≥ 60%

**Q.** What about the pest or weed control at 200 ppm (Plasmopara viticola) of the same compound?
**A.** ≥ 60%

**Q.** What about the melting point of the same compound?
**A.** 69 to 75 °C

**Q.** What about the inhibition of growth at 200 ppm (Septoria tritici) of the same compound?
**A.** ≥ 60%

**Q.** What about the inhibition of growth at 20 ppm (Pythium ultimum) of the same compound?
**A.** ≥ 60%

**Q.** And the pest or weed control at 200 ppm (Phytophthora infestans)?
**A.** ≥ 60%

**Q.** What about the pest or weed control at 200 ppm (Septoria nodorum) of the same compound?
**A.** ≥ 60%

**Q.** What about the pest or weed control at 200 ppm (Botrytis cinerea) of the same compound?
**A.** ≥ 60%

**Q.** What does the source list for `CON=CC(C)(C#N)NC(=O)C(Oc1ccc2ncc(I)cc2c1)SC` (stereo not shown) [Compound No. 57, N-(1-Cyano-2-methoxyimino-1-methyl-ethyl)-2-(3-iodo-quinolin-6-yloxy)-2-methylsulfanyl-acetamide]?
**A.** pest or weed control at 200 ppm [1]: ≥ 60%; pest or weed control at 200 ppm (Plasmopara viticola): ≥ 60%; melting point: 59 to 64 °C; inhibition of growth at 200 ppm (Septoria tritici): ≥ 60%; inhibition of growth at 20 ppm (Pythium ultimum): ≥ 60%; pest or weed control at 200 ppm (Phytophthora infestans): ≥ 60%; pest or weed control at 200 ppm (Septoria nodorum): ≥ 60%; pest or weed control at 200 ppm [2]: ≥ 60%; inhibition of growth at 200 ppm (Fusarium culmorum): ≥ 60%

**Q.** Which results are given for `CCON=CC(C)(C)NC(=O)C(Oc1ccc2ncc(Br)cc2c1)SC` (stereo not shown) [Compound No. 16, 2-(3-Bromo-quinolin-6-yloxy)-N-(2-ethoxyimino-1,1-dimethyl-ethyl)-2-methylsulfanyl-acetamide]?
**A.** pest or weed control at 200 ppm (Pyricularia oryzae): ≥ 60%; pest or weed control at 200 ppm [1]: ≥ 60%; inhibition of growth at 20 ppm (Pythium ultimum): ≥ 60%; pest or weed control at 200 ppm (Phytophthora infestans): ≥ 60%

**Q.** Which pest or weed control at 200 ppm [1] does the source give for `C#Cc1cnc2c(C)cc(OC(SC)C(=O)NC(C)(C#N)C=NOC)cc2c1` (stereo not shown) [Compound No. 56, N-(1-Cyano-2-methoxyimino-1-methyl-ethyl)-2-(3-ethynyl-8-methyl-quinolin-6-yloxy)-2-methylsulfanyl-acetamide] here?
**A.** ≥ 60%

**Q.** And the pest or weed control at 200 ppm (Plasmopara viticola)?
**A.** ≥ 60%

**Q.** What about the melting point of the same compound?
**A.** 172 to 174 °C

**Q.** And the inhibition of growth at 200 ppm (Septoria tritici)?
**A.** ≥ 60%

**Q.** What about the inhibition of growth at 20 ppm (Pythium ultimum) of the same compound?
**A.** ≥ 60%

**Q.** And the pest or weed control at 200 ppm (Phytophthora infestans)?
**A.** ≥ 60%

**Q.** And the pest or weed control at 200 ppm (Septoria nodorum)?
**A.** ≥ 60%

**Q.** What about the pest or weed control at 200 ppm (Botrytis cinerea) of the same compound?
**A.** ≥ 60%

**Q.** What about the pest or weed control at 200 ppm [2] of the same compound?
**A.** ≥ 60%

**Q.** What does the source list for `CON=CC(C)(C)NC(=O)C(OC)Oc1cc(C)c2ncc(I)cc2c1` (stereo not shown) [Compound No. 73, 2-(3-Iodo-8-methyl-quinolin-6-yloxy)-2-methoxy-N-(2-methoxyimino-1,1-dimethyl-ethyl)-acetamide]?
**A.** pest or weed control at 200 ppm [1]: ≥ 60%; pest or weed control at 200 ppm (Plasmopara viticola): ≥ 60%; melting point: 126 to 128 °C; inhibition of growth at 200 ppm (Septoria tritici): ≥ 60%; inhibition of growth at 20 ppm (Pythium ultimum): ≥ 60%; pest or weed control at 200 ppm (Septoria nodorum): ≥ 60%; pest or weed control at 200 ppm (Botrytis cinerea): ≥ 60%; pest or weed control at 200 ppm [2]: ≥ 60%; inhibition of growth at 200 ppm (Fusarium culmorum): ≥ 60%

**Q.** Which pest or weed control at 200 ppm (Pyricularia oryzae) does the source give for `C=CCON=CC(C)(C)NC(=O)C(Oc1cc(C)c2ncc(I)cc2c1)SC` (stereo not shown) [Compound No. 45, N-(2-Allyloxyimino-1,1-dimethyl-ethyl)-2-(3-iodo-8-methyl-quinolin-6-yloxy)-2-methylsulfanyl-acetamide] here?
**A.** ≥ 60%

**Q.** What about the pest or weed control at 200 ppm [1] of the same compound?
**A.** ≥ 60%

**Q.** And the pest or weed control at 200 ppm (Plasmopara viticola)?
**A.** ≥ 60%

**Q.** What about the inhibition of growth at 200 ppm (Septoria tritici) of the same compound?
**A.** ≥ 60%

**Q.** And the pest or weed control at 200 ppm (Phytophthora infestans)?
**A.** ≥ 60%

**Q.** What about the pest or weed control at 200 ppm (Septoria nodorum) of the same compound?
**A.** ≥ 60%

**Q.** Which results are given for `CON=CC(C)(C#N)NC(=O)C(Oc1cc(C)c2ncc(I)cc2c1)SC` (stereo not shown) [Compound No. 55, N-(1-Cyano-2-methoxyimino-1-methyl-ethyl)-2-(3-iodo-8-methyl-quinolin-6-yloxy)-2-methylsulfanyl-acetamide]?
**A.** pest or weed control at 200 ppm [1]: ≥ 60%; pest or weed control at 200 ppm (Plasmopara viticola): ≥ 60%; melting point: 166 to 168 °C; inhibition of growth at 20 ppm (Pythium ultimum): ≥ 60%; pest or weed control at 200 ppm (Phytophthora infestans): ≥ 60%; pest or weed control at 200 ppm (Septoria nodorum): ≥ 60%; pest or weed control at 200 ppm (Botrytis cinerea): ≥ 60%; pest or weed control at 200 ppm [2]: ≥ 60%; inhibition of growth at 200 ppm (Fusarium culmorum): ≥ 60%

**Q.** Which results are given for `CON=CC(C)(C)NC(=O)C(OC)Oc1cc(C)c2ncc(Br)cc2c1` (stereo not shown) [Compound No. 71, 2-(3-Bromo-8-methyl-quinolin-6-yloxy)-2-methoxy-N-(2-methoxyimino-1,1-dimethyl-ethyl)-acetamide]?
**A.** pest or weed control at 200 ppm [1]: ≥ 60%; pest or weed control at 200 ppm (Plasmopara viticola): ≥ 60%; melting point: 130 to 132 °C; inhibition of growth at 200 ppm (Septoria tritici): ≥ 60%; pest or weed control at 200 ppm (Botrytis cinerea): ≥ 60%; inhibition of growth at 200 ppm (Fusarium culmorum): ≥ 60%
